From article PMC12203525, “The insight into the biology of five homologous lectins produced by the entomopathogenic bacterium and nematode symbiont Photorhabdus laumondii” (Glycobiology, 2025)

Experiments:
PLL2 = target: PLL2; parameters: method as in Faltinek et al. 2019; Fujdiarová et al. 2021; settings: PLL2 binding to the immobilized sugar, SPR; ref Faltinek et al. 2019; Fujdiarová et al. 2021; read-out: KD(app); cited from earlier work
PLL5 = PLL5 (Photorhabdus laumondii subsp. laumondii, UniProt Q7N8I5); experiment: SPR, apparent KD on immobilized sugar; parameters: species or system Photorhabdus laumondii subsp. laumondii TT01; settings: PLL5 binding to the immobilized sugar, 25 °C, read-out: KD(app)
Experimental: (§1) SPR experiments were carried out on BIAcore T200 or BIAcore S200 instruments (GE Healthcare, UK). Sugar moieties were immobilized on the chip surface using the standard procedures according to the manufacturer’s instructions. Measurements with immobilized MGMR were performed on the chip prepared previously (high-density chip) ([Fujdiarová et al. 2021]). Measurements with immobilized α-L-fucose were performed on the streptavidin chip (GE Healthcare, UK). Biotinylated α-L-fucose was immobilized on channel 2 to yield a final response of 29 RU, unmodified channel 1 was used as a control.
(§2) Measurements were performed in Tris buffer with the addition of 0.05% Tween 20 at a flow rate of 30 μl/min at 25 °C. […] 50 mM NaOH for 30 s (flow 30 μl/min) was used for chip regeneration. To determine KDs (app) towards MGMR, 2-fold dilution series of lectins was used (PLL: 0.048 – 50 μM, PLL4: 0.008 - 2 μM; PLL5: 1.9 – 500 nM). The data were evaluated with the BIAcore T200 or BIAcore S200 evaluation software using a steady state approach. To determine KD(app) towards α-L-fucose, 2-fold dilution series of lectins was used (PLL: 1.25 – 20 μM, PLL4: 0.39 – 12.5 μM; PLL5: 0.12 – 30 μM). The data were evaluated with the BIAcore T200 or BIAcore S200 evaluation software using a steady state approach (PLL5) or a single-cycle kinetics approach (PLL, PLL4). For SPR inhibition experiments on the MGMR channel, 250 nM PLL, 250 nM PLL4 or 62 nM PLL5, respectively, was used. Proteins of the given concentration were mixed with a concentration series of tested inhibitors (0.01 - 0.4 M). Proteins without an inhibitor were used as a control. The response of the lectin bound to the sugar surface at equilibrium was plotted against the concentration of inhibitor in order to determine IC50. The response in the appropriate blank channel was subtracted prior to all evaluations.

PLL4 [1] = target: T1, PLL4 (Photorhabdus laumondii subsp. laumondii, UniProt Q7N8I6); experiment: SPR, apparent KD on immobilized sugar; parameters: species or system Photorhabdus laumondii subsp. laumondii TT01; settings: PLL4 binding to the immobilized sugar, 25 °C, read-out: KD(app)
Experimental: as §1, §2

PLL = PLL (Photorhabdus laumondii subsp. laumondii, UniProt Q7N8J0); experiment: SPR, apparent KD on immobilized sugar; parameters: species or system Photorhabdus laumondii subsp. laumondii TT01; settings: PLL binding to the immobilized sugar, 25 °C, read-out: KD(app)
Experimental: as §1, §2

PLL3 = target: PLL3; parameters: method as in Faltinek et al. 2019; Fujdiarová et al. 2021; settings: PLL3 binding to the immobilized sugar, SPR; ref Faltinek et al. 2019; Fujdiarová et al. 2021; read-out: KD(app); cited from earlier work
PLL4 [2] = target: T1, PLL4; experiment: Glycan microarray screening (634 saccharide ligands); type: binding, Photorhabdus laumondii subsp. laumondii TT01; settings: DyLight488-labelled PLL4, 200 μg/mL
Experimental: Lectins were fluorescently labelled with DyLight 488 according to the manufacturer’s instructions and the unbound dye was extensively dialyzed out of the protein solution. The microarray chip (Semiotik LLC, Moscow, Russia, batch OSPS280715) containing 634 saccharide ligands, each in 6 replicates, was treated with PBS (137 mM NaCl, 2.7 mM KCl, 8 mM Na2HPO4, […], pH 7.4) with added 0.1% Tween-20 for 15 min. The labelled proteins (200 μg/mL) were then separately applied to the chip surface and incubated in a humidity chamber at 37 °C for 1 h. After the incubation, the unbound protein was washed out with PBS containing 0.05% Tween-20 and deionized water. The chip was dried by airflow and scanned using an InnoScan1100 AL (Innopsys, Carbonne, France) with a 488 nm laser. The data were analyzed with the software Mapix 8.2.2 and an online glycan chip converter (Semiotic, https://rakitko.shinyapps.io/semiotik).

T1 sequence (Q7N8I6 entry or part of it): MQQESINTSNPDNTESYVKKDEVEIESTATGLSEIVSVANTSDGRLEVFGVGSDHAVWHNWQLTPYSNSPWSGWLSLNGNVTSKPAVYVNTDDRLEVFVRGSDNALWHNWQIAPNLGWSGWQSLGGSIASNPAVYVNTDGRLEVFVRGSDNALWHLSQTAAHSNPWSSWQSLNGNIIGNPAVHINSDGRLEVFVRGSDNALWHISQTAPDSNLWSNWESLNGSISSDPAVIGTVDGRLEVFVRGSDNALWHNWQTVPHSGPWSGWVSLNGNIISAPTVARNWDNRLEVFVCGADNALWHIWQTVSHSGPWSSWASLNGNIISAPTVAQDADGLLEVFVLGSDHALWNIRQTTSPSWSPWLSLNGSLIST
PLL, sequence (Q7N8J0 entry or part of it): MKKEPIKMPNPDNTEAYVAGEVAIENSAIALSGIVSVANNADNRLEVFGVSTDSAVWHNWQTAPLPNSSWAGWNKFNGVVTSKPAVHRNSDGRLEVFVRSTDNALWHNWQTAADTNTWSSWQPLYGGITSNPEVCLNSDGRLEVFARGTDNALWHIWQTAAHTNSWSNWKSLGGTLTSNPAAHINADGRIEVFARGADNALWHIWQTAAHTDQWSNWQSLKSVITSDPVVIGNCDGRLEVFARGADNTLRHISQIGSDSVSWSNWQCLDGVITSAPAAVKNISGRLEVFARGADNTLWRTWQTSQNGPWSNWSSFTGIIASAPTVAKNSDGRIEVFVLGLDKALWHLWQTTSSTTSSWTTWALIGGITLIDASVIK
PLL5, sequence (Q7N8I5 entry or part of it): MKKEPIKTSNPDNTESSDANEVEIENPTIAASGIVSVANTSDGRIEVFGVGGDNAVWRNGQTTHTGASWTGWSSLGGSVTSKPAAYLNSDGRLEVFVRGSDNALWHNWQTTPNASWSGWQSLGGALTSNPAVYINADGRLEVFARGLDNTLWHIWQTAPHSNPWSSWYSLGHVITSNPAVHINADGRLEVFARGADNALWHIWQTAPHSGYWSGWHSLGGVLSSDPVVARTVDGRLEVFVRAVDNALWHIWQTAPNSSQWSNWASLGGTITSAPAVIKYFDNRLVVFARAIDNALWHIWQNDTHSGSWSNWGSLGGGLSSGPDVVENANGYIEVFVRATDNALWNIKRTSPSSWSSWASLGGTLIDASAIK

| Compound | Kd (PLL2) [µM] | Kd (PLL5) [µM] | Kd (PLL4 [1]) [µM] | Kd (PLL) [µM] | Kd (PLL3) [µM] | glycan array binding (in words) (PLL4 [2]) |
| --- | --- | --- | --- | --- | --- | --- |
| COC[C@H]1O[C@@H](O[C@@H]2[C@@H](OC)[C@@H](OC)[C@H](O)O[C@H]2C)[C@H](O)[C@@H](OC)[C@@H]1O [MGMR, 3,6-O-Me2-D-Glcβ1-4(2,3-O-Me2)-L-Rhaα] | 0.0061 ± 0.0002 | 0.3 ± 0.03 | 0.8 ± 0.06 | 44 ± 4.6 | 607 ± 46 | – |
| α-L-fucoside | 117 ± 4.8 | 64 ± 8.6 | 4.3 ± 0.1 | 8.5 ± 0.2 | 322 ± 86 | recognized |
